Tests used:
[1] = tested on: trehalose content of wild-type C. albicans; experiment: Trehalose measurement (colorimetric glucose assay after trehalase); type: cell-based; conditions: 0.5 mM 4456dh
Method: Given that 4456dh inhibits the activity of CaTps1 and CnTps1 in vitro and has bioactivity against multiple Candida and Cryptococcus species, we tested whether 4456dh affects trehalose production in cells. We quantified trehalose levels in cells treated with 4456dh at sub-lethal concentrations as determined by the MIC assays using a colorimetric spectrophotometric assay. We measured trehalose production in wild-type C. albicans at 30°C and 42°C, in the presence and absence of 4456dh. […] However, we observed a significant increase in trehalose content when C. albicans was exposed to high temperature stress (P < 0.0001; Fig. 5A).
Fig 5 4456dh treatment results in reduced trehalose accumulation and a decrease in Tps1-dependent virulence factors. […] Trehalose was measured using a colorimetric glucose assay after treatment of cultures with trehalase. […] Cells were harvested, stained in India Ink, and analyzed using differential interference contrast imaging. […]
(§1) 124 technical replicates. Growth, as determined by a reading of absorbance at 600 nm, was
125 normalized to untreated controls and was corrected for the absorbance of 4456dh in the YPD […]
(§2) 129 overnight cultures was quantified by measuring the OD600 and corrected for the background
130 absorbance of the medium. Antifungal potency for 4456dh was assessed by minimum inhibitory […]

[2] = tested on: C. deneoformans; experiment: Zone of inhibition assay; type: cell-based
Method: To test this hypothesis, we performed zone of inhibition studies in the C. deneoformans background (Fig. S8A).
123 hours. All dose- response assays were performed in biological triplicate with a minimum of three
as §1
125 normalized to untreated controls and was corrected for the absorbance of 4456dh in the YPD
126 medium. Growth was plotted as a heat map using Excel.
127 Wild-t y pe C. neoformans strains H99, wild-type C. deneoformans JEC21 and wild- t y pe C. gattii
128 R265 were cultured overnight in YPD (yeast-peptone- dextrose) medium at 30 °C. Growth of the
as §2
130 absorbance of the medium. Antifungal potency for 4456dh was assessed by minimum inhibitory
131 concentration (MIC) dose-response assays performed under standard Clinical and Lab Standards […]
137 replicates. Growth, as determined by a reading of absorbance at 600 nm, was normalized to
138 untreated controls and was corrected for the absorbance of 4456dh in the YPD medium. […]
139 minimum inhibitory concentration causing 80% growth reduction, or MIC80, was determined based […]
149 mM 4456dh. The OD600 was determined followed by dilution of overnight cultures to an equivalent […]
157 Optical density (OD600) was determined with an Infinite PRO plate reader ( Tecan). […]

For `Cn1cc(-c2csc(NC(=O)Cc3ccccn3)n2)cn1` [Compound 4456dh], the “change in trehalose content” value ([1]; 30°C) was “no significant change detected”, the “change in trehalose content” value ([1]; 42°C) was “approximate twofold decrease” and the zone of inhibition ([2]; C. deneoformans tps1Δ cells, 30°C) was “diffuse yet visible zone of inhibition”. For the same compound, the zone of inhibition ([2]; C. deneoformans wild-type (JEC21, JEC20), 37°C) was “distinct zone of inhibition”.
